For experiment [1], the system named is human SCD mRNA expression. The experiment is described as follows: Northern blot of SCD mRNA in treated HepG2 cells. It counts as cell-based. To be noted: range of doses, cholesterol 10 μg/ml with 1 μg/ml 25-hydroxycholesterol, FIG. 15. As to the method: FIG. 15. Human HepG2 cells cultured and treated with a range of doses of arachidonic acid, DHA or 10 μg/ml cholesterol or EPA as indicated. Total mRNA was isolated and quantified. Isolation and Analysis of RNA-Total RNA was isolated from HepG2 cells using the acid guanidinium-phenol-chloroform extraction method. Twenty micrograms of total RNA was separated by 0.8% agarose/2.2 M formaldehyde gel electrophoresis and transferred onto nylon membrane. The membrane was hybridized with ^32P-labeled human SCD cDNA probe generated by PCR as follows: pAL15 probe was used as control for equal loading. We tested whether the human SCD gene expression was also repressed by cholesterol and polyunsaturated fatty acids. Human HepG2 cells were cultured and then treated with 100 μM arachidonic acid, DHA or 10 μg/ml cholesterol and 1 μg/ml of 25-hydroxycholesterol cholesterol as we have described previously. Total mRNA was isolated and subjected to northern blot analysis using a probe corresponding to the human cDNA and generated by the PCR method using primers based on published human SCD cDNA sequence.

Experiment [2] concerns human SCD promoter. The experiment is described as follows: Human SCD promoter-luciferase reporter (pSCD-500) in transfected HepG2 cells. It counts as cell-based. Particulars: for SCD promoter activity: HepG2 cells co-transfected with mature SREBP-1a, in the presence of cholesterol, fatty acids as albumin complexes (data not shown). As to the method:
The decrease in promoter activity in the reporter construct correlated with decreases in endogenous SCD mRNA and protein levels. […] Our studies indicate that like the mouse SCD1 gene, the human SCD gene is regulated by polyunsaturated fatty acids and cholesterol at the level of gene transcription and that SREBP plays a role in the transcriptional activation of this gene. Cell Culture and DNA transfections—HepG2 cells, were grown in Low Glucose DMEM supplemented with 10% Fetal Bovine Serum and 1% Penicillin/Streptomycin solution and maintained at 37 C, 5% CO2 in a humidified incubator. Cells were passaged into 6 cm dishes to give 40-70% confluence in about 12-16 hours. Cells were then transfected with 5 μg plasmid DNA per plate of pSCD-500 or the Basic PGL3 reporter as well as well as the pRL-TK, internal controls (Promega) using the LT-1 transfection reagent (Pan Vera). After 48 hours, cells were rinsed with PBS and then treated in Williams' E Media, a fatty acid-free media, containing insulin, dexamethasone, and appropriate concentrations of albumin-conjugated fatty acids as indicated in figures and legends. Cells were also treated with ethanol alone (as control) or cholesterol (10 μg/mL) and 25-OH cholesterol (1 μg/mL) dissolved in ethanol. After an additional 24 h, extracts were prepared and assayed for luciferase activity. Non-transfected cells were used as the blank and Renilla Luciferase was used as an internal control. Cell extracts were assayed for protein according to Lowry, and all results were normalized to protein concentration as well as to renilla luciferase counts. Each experiment was repeated at least three times, and all data are expressed as means±SEM. […] To observe the regulatory effects of mature SREBP-1a and PUFAs on the activity of SCD promoters, HepG2 hepatic cells were transiently co-transfected with 20 ng (per 6-cm dish) of plasmid DNA containing the human SCD promoter as described above but this time the transfections were carried out in the presence of cholesterol to inhibit the maturation of the endogenous SREBP and thus ensure that there was little mature form of the endogenous SREBP present in the cells. After transfection, the cells were then treated with, arachidonic acid, EPA and DHA as albumin complexes and luciferase activity was then assayed using a luminometer. If SREBP mediates PUFA repression of the human SCD gene, SCD promoter activity would not diminish upon treatment the transfected cells with PUFA.
For orientation: Reporter assays use an easily measured gene product as a stand-in for the process of interest.

In experiment [3] the target is T1, SCD (Homo sapiens, UniProt O00767).
T1 sequence (O00767 1-359): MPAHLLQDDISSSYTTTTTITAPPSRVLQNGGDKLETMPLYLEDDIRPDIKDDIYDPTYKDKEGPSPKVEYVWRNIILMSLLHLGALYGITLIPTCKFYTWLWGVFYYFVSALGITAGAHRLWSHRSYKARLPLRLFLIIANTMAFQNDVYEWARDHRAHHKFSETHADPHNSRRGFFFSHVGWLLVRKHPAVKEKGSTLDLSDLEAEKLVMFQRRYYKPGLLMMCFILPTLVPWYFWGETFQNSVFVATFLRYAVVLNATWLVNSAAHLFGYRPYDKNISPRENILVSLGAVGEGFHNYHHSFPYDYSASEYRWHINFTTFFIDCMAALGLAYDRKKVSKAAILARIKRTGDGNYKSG
To be noted: known from the literature; cited from earlier work.

The test system of experiment [4] is SCD1 mRNA. Particulars: known from the literature; cited from earlier work.
Experiment [5] deals with SCD protein. Briefly: Western blot of SCD protein in treated HepG2 cells. It counts as cell-based, human. Particulars: western blot of protein extracts (data not shown). As to the method: Immunoblotting—Cell extracts were prepared from HepG2 cells that had been treated with the various fatty acids or cholesterol as described by Heinemann et al (17). The same amount of protein (60 μg) from each fraction was subjected to 10% SDS-polyacrylamide gel electrophoresis and transferred to Immobilon-P transfer membranes at 4° C. After blocking with 10% non-fat milk in TBS buffer (pH 8.0) plus 0.5% Tween at 4° C. overnight, the membrane was washed and incubated with rabbit anti-rat SCD as primary antibody (17) and goat anti-rabbit IgG-HRP conjugate as the secondary antibody. Visualization of the SCD protein was performed with ECL western blot detection kit. We tested whether the human SCD gene expression was also repressed by cholesterol and polyunsaturated fatty acids. Human HepG2 cells were cultured and then treated with 100 μM arachidonic acid, DHA or 10 μg/ml cholesterol and 1 μg/ml of 25-hydroxycholesterol cholesterol as we have described previously. Total mRNA was isolated and subjected to northern blot analysis using a probe corresponding to the human cDNA and generated by the PCR method using primers based on published human SCD cDNA sequence.

For experiment [6], the target named is T2, SCD1 (Mus musculus, UniProt P13516).
T2 construct: from tissue; host or cells: mouse liver microsomes (wild type, after a high carbohydrate fat-free diet)
T2 sequence (P13516 1-355): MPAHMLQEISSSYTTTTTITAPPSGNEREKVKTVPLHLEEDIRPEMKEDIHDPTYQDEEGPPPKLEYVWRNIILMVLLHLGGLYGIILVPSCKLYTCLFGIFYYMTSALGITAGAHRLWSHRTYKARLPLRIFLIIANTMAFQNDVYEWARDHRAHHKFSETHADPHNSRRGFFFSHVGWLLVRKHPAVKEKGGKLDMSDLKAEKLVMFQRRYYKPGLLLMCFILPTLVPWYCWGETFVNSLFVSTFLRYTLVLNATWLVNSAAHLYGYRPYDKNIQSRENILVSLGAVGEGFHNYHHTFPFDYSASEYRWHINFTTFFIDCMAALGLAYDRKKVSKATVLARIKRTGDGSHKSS
Briefly: SCD1 desaturase activity assay, transfer of 3H from 3H-stearoyl CoA to water in liver microsomes. In kind it is biochemical. Particulars: for inhibition of SCD1: pre-conjugated to CoA (microsomes incubated with CoA and ATP before 3H-stearoyl CoA). The protocol: Microsomes from wild type livers were used for this experiment. A turnover number for SCD1 activity under these conditions was estimated at 2 nmol/min/mg protein, which is about half that observed at 37° C.
Livers were collected from wild type and SCD1 knockout mice following 3 days on a high carbohydrate fat-free diet (this induces SCD1 expression in liver by about 50-fold), homogenized and a portion used for microsome purification. ^3H-water production was determined for 15 minutes at RT (room temperature) in both homogenate and microsome preparations at equivalent protein concentration, followed by quenching the reaction with acid and using charcoal to separate substrate from product. Quenching the sample with acid prior to the addition of substrate offers a blank, or control containing background radioactivity without any desaturation reaction. […] The “window”, or SCD1-dependent desaturation in this assay, is a highly visible and significant 160-fold difference between wild type and SCD1 knockout microsomes.
Microsomes from wild type mice were used to test the effectiveness of three known inhibitors of SCD1: conjugated linoleic acid (CLA), 9-thia stearic acid (9-thia) and sterculic acid (SA). […] This experiment establishes that SCD1 activity can be inhibited with known inhibitors but they appear to require conjugation with CoA. An important use of this screening assay is to find small molecules that are potent inhibitors of SCD1 biological activity without conjugation to CoA.
In a preferred embodiment, the assay makes use of ^3H-stearoyl CoA (with the ^3H on the 9 and 10 carbon atoms), the substrate for SCD1. Desaturation by SCD1, produces oleoyl CoA and 3H-water molecules. The reaction is run at room temperature, quenched with acid and then activated charcoal is used to separate unreacted substrate from the radioactive water product. The charcoal is sedimented and amount of radioactivity in the supernatant is determined by liquid scintillation counting. This assay is specific for SCD1-dependent desaturation as judged by the difference seen when comparing the activity in wild type and SCD1-knockout tissues. Further, the method is easily adapted to high throughput as it is cell-free, conducted at room temperature and is relatively brief (1 hour reaction time period versus previous period of 2 days). This procedure is illustrated more fully in FIGS. 17 to 20.
For orientation: Liver microsomes are a subcellular fraction often used to study metabolism.

[7] abbreviates: added as the free fatty acid, microsomes from wild type mice (FIG. 19 panel A).

As for `CCCCC/C=C\C/C=C\C/C=C\C/C=C\CCCC(=O)O` [AA, arachidonic acid], the “human SCD mRNA expression” value in experiment [1] was “decreased the human SCD mRNA expression in a dose dependent manner”. Moreover, in experiment [2], the SCD promoter activity entry is reported as “continued to repress SCD promoter activity with only a slight attenuation”.

`CCCCCC/C=C/C=C\CCCCCCCC(=O)O` [Cis-9, trans-11 conjugated linoleic acid]: the “inhibition of SCD enzyme activity” value in experiment [3] is “does not”.

On to `CCCCC/C=C\C=C\CCCCCCCCC(=O)O` [Cis-12, trans-10 conjugated linoleic acid], for which, in experiment [3], the “inhibition of SCD enzyme activity” value is on record as “effectively inhibit SCD enzyme activity”. Further, in experiment [4], the “abundance of SCD1 mRNA” value is “reduce the abundance of SCD1 mRNA”.

As to `CC/C=C\C/C=C\C/C=C\C/C=C\C/C=C\C/C=C\CCC(=O)O` [DHA], the “human SCD mRNA expression” value in experiment [1] was “decreased the human SCD mRNA expression in a dose dependent manner”. Also, the SCD promoter activity entry in experiment [2] is “continued to repress SCD promoter activity with only a slight attenuation”.

Take `CC/C=C\C/C=C\C/C=C\C/C=C\C/C=C\CCCC(=O)O` [EPA]: the SCD promoter activity result in experiment [2] is “continued to repress SCD promoter activity with only a slight attenuation”.

On to `CC(C)CCC[C@@H](C)[C@H]1CC[C@H]2[C@@H]3CC=C4C[C@@H](O)CC[C@]4(C)[C@H]3CC[C@]12C` [cholesterol], for which, in experiment [1], the “human SCD mRNA expression” value is recorded as “decreased the human SCD mRNA expression in a dose dependent manner”. The “levels of the SCD protein” value in experiment [5] is on record as “decreased the levels of the SCD protein”. Besides, in experiment [2] (transiently transfected HepG2 cells), the SCD promoter-luciferase activity result is listed as “decreased the SCD promoter-luciferase activity”.

As to `CCCCCCCCC1=C(CCCCCCCC(=O)O)C1` [sterculic acid, 8-(2-octyl-cyclopropenyl)octanoic acid], the “suppression of SCD1 activity” value in experiment [6] (setting [7]) was “none were effective”; in experiment [6] (pre-conjugated to CoA, preincubation condition, FIG. 19 panel B) it was approximately 100%. For the same compound, the “inhibition of SCD1” value in experiment [6] (FIG. 19 panel B) is on record as “graded inhibition”.

Turning to conjugated linoleic acid, in experiment [6] (setting [7]), the “suppression of SCD1 activity” value is “none were effective”. In addition, the “inhibition of SCD1” value in experiment [6] (FIG. 19 panel B) is on record as “graded inhibition”.
